The record followed here is US11390604B2 (Hoffmann-La Roche Inc., priority 2019, dated 2022).

Structures can show the parent of a compound that is named as a salt. Where two headings read alike, the source gives them in different places.

The test system of the experiment is Acinetobacter baumannii ATCC 17961. Briefly: Antimicrobial susceptibility testing: 90% growth inhibitory concentration (IC90) determination. Format: cell-based. The essentials: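 Broth microdilution in Iso-Sensitest medium, twofold series (e.g. 50 to 0.097 μM final), ~5×10^5 CFU/ml inoculum, 35±2 °C. OD600 read every 20 min over 16 h. IC90 derived from growth inhibition during logarithmic phase.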

[1] abbreviates: ATCC17961, Acinetobacter baumannii ATCC 17961, Iso-Sensitest broth, read-out: ATCC 17961 IC90.

The term IC90 denotes the concentration at which the effect reaches the 90% level. As to `C=C(C)Cn1cc(-c2cnc(C(=O)Nc3ccc(C(=O)N4CCN(C(=O)[C@H]5[C@@H]6CNC[C@@H]65)CC4)c(Cl)c3)n2C)c(C(F)(F)F)n1` [Example 257, rac-N-(4-(4-((1R,5S,6r)-3-azabicyclo[3.1.0]hexane-6-carbonyl)piperazine-1-carbonyl)-3-chlorophenyl)-1-methyl-5-(1-(2-methylallyl)-3-(trifluoromethyl)-1H-pyrazol-4-yl)-1H-imidazole-2-carboxamide hydrochloride], the IC90 under setting [1] turned out to be 313 nM.
On the same count and under the same terms, in the case of `Cn1c(-c2cn(C3CC3)nc2C(F)(F)F)cnc1C(=O)Nc1ccc(C(=O)N2CCN(C(=O)[C@]3(C)CCCN3)CC2)c(Cl)c1` [Example 258, (S)-N-(3-chloro-4-(4-(2-methylpyrrolidine-2-carbonyl)piperazine-1-carbonyl)phenyl)-5-(1-cyclopropyl-3-(trifluoromethyl)-1H-pyrazol-4-yl)-1-methyl-1H-imidazole-2-carboxamide hydrochloride] it was 314 nM.
Still for that read-out and setting: the result for `Cn1c(-c2cn(C3C=C(F)C3)nc2C(F)(F)F)cnc1C(=O)Nc1ccc(C(=O)N[C@H]2[C@@H]3CN(C(=O)C4CCNCC4)C[C@@H]32)c(Cl)c1` (stereo partly drawn) [Example 259, N-(3-chloro-4-(((exo)-3-(piperidine-4-carbonyl)-3 azabicyclo[3.1.0]hexan-6-yl)carbamoyl)phenyl)-5-(1-(3-fluorocyclobut-2-en-1-yl)-3-(trifluoromethyl)-1H-pyrazol-4-yl)-1-methyl-1H-imidazole-2-carboxamide formate] reads 314 nM; that for `Cn1c(-c2cn(CC3CCC3)nc2C(F)(F)F)cnc1C(=O)Nc1ccc(C(=O)N2CCN(C(=O)N[C@H]3C[C@@H](N)C3)CC2)c(Cl)c1` [Example 260, rac-N-((1s,3s)-3-aminocyclobutyl)-4-(2-chloro-4-(5-(1-(cyclobutylmethyl)-3-(trifluoromethyl)-1H-pyrazol-4-yl)-1-methyl-1H-imidazole-2-carboxamido)benzoyl)piperazine-1-carboxamide hydrochloride], 314 nM; that for `C#CCn1cc(-c2cnc(C(=O)Nc3ccc(C(=O)N4CCN(C(=O)C5CCNCC5)CC4)c(F)c3)n2C)c(C(F)(F)F)n1` [Example 261, N-(3-fluoro-4-(4-(piperidine-4-carbonyl)piperazine-1-carbonyl)phenyl)-1-methyl-5-(1-(prop-2-yn-1-yl)-3-(trifluoromethyl)-1H-pyrazol-4-yl)-1H-imidazole-2-carboxamide], 323 nM.
For `Cn1c(-c2cn(C3CC3)nc2C(F)(F)F)cnc1C(=O)Nc1ccc(C(=O)NCCCCCCNC(=O)N[C@H]2C[C@@H](N)C2)c(Cl)c1` [Example 262, N-[4-[6-[(3-aminocyclobutyl)carbamoyl-amino]hexylcarbamoyl]-3-chlorophenyl]-5-[1-cyclopropyl-3-(trifluoromethyl)pyrazol-4-yl]-1-methylimidazole-2-carboxamide;formic acid], the IC90 under setting [1] came to 323 nM.
For `CCn1cc(-c2cnc(C(=O)Nc3ccc(C(=O)N4CCN(C(=O)[C@H]5[C@@H]6CNC[C@@H]65)CC4)c(Br)c3)n2C)c(C(F)(F)F)n1` [Example 263, N-[3-bromo-4-[4-[rac-(1R,5S)-3-azabicyclo[3.1.0]hexane-6-carbonyl]piperazine-1-carbonyl]phenyl]-5-[1-ethyl-3-(trifluoromethyl)pyrazol-4-yl]-1-methylimidazole-2-carboxamide;hydrochloride], the IC90 under setting [1] was found to be 325 nM.
Still for that read-out and setting: the result for `Cn1c(-c2cn(C3CC3(F)F)nc2C(F)(F)F)cnc1C(=O)Nc1ccc(C(=O)N[C@H]2[C@@H]3CN(C(=O)N4CCN(CCCN)CC4)C[C@@H]32)c(Cl)c1` (stereo partly drawn) [Example 264, N-(4-(((1R,5S,6s)-3-(4-(3-aminopropyl)piperazine-1-carbonyl)-3-azabicyclo[3.1.0]hexan-6-yl)carbamoyl)-3-chlorophenyl)-5-(1-(2,2-difluorocyclopropyl)-3-(trifluoromethyl)-1H-pyrazol-4-yl)-1-methyl-1H-imidazole-2-carboxamide] reads 325 nM; that for `Cn1c(-c2cn(C3CC3(F)F)nc2C(F)(F)F)cnc1C(=O)Nc1ccc(C(=O)NC2[C@H]3CN(C(=O)N[C@H]4C[C@@H](N)C4)C[C@@H]23)c(Cl)c1` (stereo partly drawn) [Example 265, cis-N-(3-aminocyclobutyl)-6-[[2-chloro-4-[[5-[1-(2,2-difluorocyclopropyl)-3-(trifluoromethyl)pyrazol-4-yl]-1-methylimidazole-2-carbonyl]amino]benzoyl]amino]-3-azabicyclo[3.1.0]hexane-3-carboxamide, formate salt], 328 nM.
Turning to `Cn1c(-c2cn(C3CC3)nc2C(F)(F)F)cnc1C(=O)Nc1ccc(C(=O)N2CCN(C(=O)N[C@@H]3C[C@H](N)C3(C)C)CC2)c(Cl)c1` [Example 266, N-[(1R,3S)-3-amino-2,2-dimethylcyclobutyl]-4-[2-chloro-4-[[5-[1-cyclopropyl-3-(trifluoromethyl)pyrazol-4-yl]-1-methylimidazole-2-carbonyl]amino]benzoyl]pipera-zine-1-carboxamide;formic acid], the IC90 (Acinetobacter baumannii, ATCC17961, read-out: ATCC 17961 IC90, Acinetobacter baumannii ATCC 17961, Iso-Sensitest broth) is 330 nM.
Turning to `Cn1c(-c2cn(C3CC3(F)F)nc2C(F)(F)F)cnc1C(=O)Nc1ccc(C(=O)N2CCN(C(=O)C3CCNCC3)CC2)c(Cl)c1` (centres unmarked) [Example 267, N-(3-chloro-4-(4-(piperidine-4-carbonyl)piperazine-1-carbonyl)phenyl)-5-(1-(2,2-difluorocyclopropyl)-3-(trifluoromethyl)-1H-pyrazol-4-yl)-1-methyl-1H-imidazole-2-carboxamide formate], the IC90 under setting [1] worked out at 332 nM.
On to `Cn1c(-c2cn(C3CC3(F)F)nc2C(F)(F)F)cnc1C(=O)Nc1ccc(C(=O)N2C3CCC2CNC3)c(Cl)c1` (centres unmarked) [Example 268, N-(4-(3,8-diazabicyclo[3.2.1]octane-8-carbonyl)-3-chlorophenyl)-5-(1-(2,2-difluorocyclopropyl)-3-(trifluoromethyl)-1H-pyrazol-4-yl)-1-methyl-1H-imidazole-2-carboxamide formate], for which the IC90 under setting [1] came out at 332 nM.
The same measure, in the same setting: in the case of `Cn1c(-c2cn(CC#N)nc2C(F)(F)F)cnc1C(=O)Nc1ccc(C(=O)N[C@H]2C[C@@H](NC(=O)[C@H]3C[C@H](N)C3)C2)c(Cl)c1` [Example 269, N-[4-[[3-[(3-aminocyclobutanecarbonyl)ami-no]cyclobutyl]carbamoyl]-3-chloro-phenyl]-5-[1-(cyanomethyl)-3-(trifluoromethyl)pyrazol-4-yl]-1-methyl-imidazole-2-carboxamide; formic acid] it was 333 nM.
Still for that read-out and setting: the result for `Cn1c(-c2cn(C3CC3)nc2C(F)(F)F)cnc1C(=O)Nc1ccc(C(=O)N2CCN(C(=O)C(O)CN)CC2)c(Cl)c1` (centres unmarked) [Example 270, N-[4-[4-(3-amino-2-hydroxypropanoyl)piperazine-1-carbonyl]-3-chlorophenyl]-5-[1-cyclopropyl-3-(trifluoromethyl)pyrazol-4-yl]-1-methylimidazole-2-carboxamide;hydrochloride] reads 333 nM; that for `Cn1c(-c2cn(CC(F)F)nc2C(F)(F)F)cnc1C(=O)Nc1ccc(C(=O)N2CCN(C(=O)N[C@H]3C[C@@H](N)C3)CC2)c(F)c1` [Example 272, rac-N-((1s,3s)-3-aminocyclobutyl)-4-(4-(5-(1-(2,2-difluoroethyl)-3-(trifluoromethyl)-1H-pyrazol-4-yl)-1-methyl-1H-imidazole-2-carboxamido)-2-fluorobenzoyl)piperazine-1-carboxamide], 335 nM.
Turning to `Cn1c(-c2cn(C3CC3)nc2C(F)(F)F)cnc1C(=O)Nc1ccc(C(=O)N2CCN(C(=O)[C@H]3CCCCN3)CC2)c(Cl)c1` [Example 273, (R)-N-(3-chloro-4-(4-(piperidine-2-carbonyl)piperazine-1-carbonyl)phenyl)-5-(1-cyclopropyl-3-(trifluoromethyl)-1H-pyrazol-4-yl)-1-methyl-1H-imidazole-2-carboxamide hydrochloride], under setting [1], the IC90 was found to be 336 nM.
The same measure, in the same setting: the result for `Cn1c(-c2cn(C3CCCC3)nc2C(F)(F)F)cnc1C(=O)Nc1ccc(C(=O)N2CCN(C(=O)C3CCNCC3)CC2)c(Cl)c1` [Example 274, N-(3-chloro-4-(4-(piperidine-4-carbonyl)piperazine-1-carbonyl)phenyl)-5-(1-cyclopentyl-3-(trifluoromethyl)-1H-pyrazol-4-yl)-1-methyl-1H-imidazole-2-carboxamide hydrochloride] reads 338 nM; that for `Cn1c(-c2cn(CC#N)nc2C(F)(F)F)cnc1C(=O)Nc1ccc(C(=O)N[C@H]2C[C@@H](NC(=O)N[C@@H]3CC[C@H](N)C3)C2)c(Cl)c1` [Example 275, N-[4-[[3-[[(1R,3S)-3-aminocyclopentyl]carbamoylami-no]cyclobutyl]carbamoyl]-3-chloro-phenyl]-5-[1-(cyanomethyl)-3-(trifluoromethyl)pyrazol-4-yl]-1-methyl-imidazole-2-carboxamide; formic acid], 341 nM; that for `Cn1c(-c2cn(CC3CCC3)nc2C(F)(F)F)cnc1C(=O)Nc1ccc(C(=O)N2CCN(C(=O)[C@H]3C[C@H](N)C3)CC2)c(Cl)c1` [Example 276, rac-N-(4-(4-((1r,3r)-3-aminocyclobutane-1-carbonyl)piperazine-1-carbonyl)-3-chlorophenyl)-5-(1-(cyclobutylmethyl)-3-(trifluoromethyl)-1H-pyrazol-4-yl)-1-methyl-1H-imidazole-2-carboxamide hydrochloride], 343 nM.
Still for that read-out and setting: the result for `Cn1c(-c2cn(C3CC3)nc2C(F)(F)F)cnc1C(=O)Nc1ccc(C(=O)N2CCCC(CN)C2)c(Cl)c1` (centres unmarked) [Example 277, N-[4-[3-(aminomethyl)piperidine-1-carbonyl]-3-chlorophenyl]-5-[1-cyclopropyl-3-(trifluoromethyl)pyrazol-4-yl]-1-methylimidazole-2-carboxamide;hydrochloride] reads 343 nM.
